The source made the active and inactive calls. The calls are words filed in the database; no cut-off is given here. A value given as a limit tells only on which side of the number the result lay.

Series [1] can be described thus: AUC in rat at 5 mg/kg, po. The format is ADME, organism-based. The arrangement: dose 5 mg/kg, route oral. The settings on record: plasma.
Series [2] concerns the target Cytochrome P450 2C19 (Homo sapiens, UniProt P33261). As to the kind of experiment: Inhibition of CYP2C19. The format is ADME.
Series [3] has as its target T1, Histamine H3 receptor (Homo sapiens, UniProt Q9Y5N1). Description: Inverse agonist activity at human histamine H3 receptor by [35S]-GTPgammaS binding assay. Type of series: functional. On the technique in general: GTPγS resists hydrolysis and so accumulates on activated G proteins.
Series [4] relates to Rattus norvegicus. Description: Wake promoting activity in EEG/EMG Sprague-Dawley rat model at 30 mg/kg, ip measured after 4 hrs relative to vehicle-treated control. The format is functional. Particulars: route intraperitoneal.
The nature of series [5]: Half life in mouse liver microsomes. The format is ADME, Microsome. (Liver microsomes are a subcellular fraction often used to study metabolism.)
The target of series [6] is Cytochrome P450 2C9 (Homo sapiens, UniProt P11712). Description: Inhibition of CYP2C9. Type of series: ADME.
Cytochrome P450 2C9, sequence (P11712 whole entry): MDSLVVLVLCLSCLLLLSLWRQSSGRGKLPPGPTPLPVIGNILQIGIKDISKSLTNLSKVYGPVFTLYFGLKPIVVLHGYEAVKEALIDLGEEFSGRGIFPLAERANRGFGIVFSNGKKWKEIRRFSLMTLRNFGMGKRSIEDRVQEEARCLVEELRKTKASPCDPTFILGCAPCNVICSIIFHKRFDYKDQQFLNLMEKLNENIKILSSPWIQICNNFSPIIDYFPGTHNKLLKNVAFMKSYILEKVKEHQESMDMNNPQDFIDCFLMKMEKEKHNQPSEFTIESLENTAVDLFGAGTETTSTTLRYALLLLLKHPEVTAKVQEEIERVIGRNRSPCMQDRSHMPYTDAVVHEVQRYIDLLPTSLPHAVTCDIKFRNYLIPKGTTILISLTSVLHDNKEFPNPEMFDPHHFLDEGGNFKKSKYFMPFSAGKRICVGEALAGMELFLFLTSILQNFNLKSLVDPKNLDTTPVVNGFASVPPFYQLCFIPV
Series [7] concerns Rattus norvegicus. As to the kind of experiment: Inhibition of RAMH-induced dipsogenia in ip dosed rat. The format is functional.
Series [8] is described as follows: Half life in dog liver microsomes. The format is ADME, Canis lupus familiaris, Microsome.
Series [9] deals with T1, Histamine H3 receptor. As to the kind of experiment: Antagonist activity at human histamine H3 receptor assessed as inhibition of [35S]-GTPgammaS binding. Type of series: functional.
Series [10] is described as follows: Half life in monkey liver microsomes. The format is ADME, Macaca mulatta, Microsome. Particulars: rhesus monkey.
Series [11] has as its target T1, Histamine H3 receptor. Description: Displacement of [3H]NAMH from human histamine H3 receptor expressed in CHO cells. The format is cell-based. On the technique in general: In a radioligand displacement assay an active substance lowers the binding of a labelled ligand.
Series [12] is described as follows: Volume of distribution in rat at […], iv. Type of series: ADME, organism-based. Particulars: in vivo.
Series [13] in a line: Oral bioavailability in rat at 5 mg/kg. Type of series: ADME, organism-based. The settings on record: in vivo.
The nature of series [14]: Half life in human liver microsomes. Type of series: ADME, Microsome.
A short description of series [15]: Half life in rat at […], iv. The settings on record: in vivo. The format is ADME, organism-based.
A short description of series [16]: Ratio of drug level in brain to plasma in rat at 5 mg/kg, po measured after 6 hrs. The format is ADME, organism-based. More on the design: dose 5 mg/kg, route oral. The settings on record: read-out: BPR.
Series [17] is described as follows: Half life in rat liver microsomes. The format is ADME, Microsome.
Series [18] can be described thus: Clearance in rat at […], iv. Type of series: ADME, organism-based. Particulars: in vivo.
In series [19] the target is Cytochrome P450 2D6 (Homo sapiens, UniProt P10635). Description: Inhibition of CYP2D6. Type of series: ADME.
Cytochrome P450 2D6, sequence (P10635 whole entry): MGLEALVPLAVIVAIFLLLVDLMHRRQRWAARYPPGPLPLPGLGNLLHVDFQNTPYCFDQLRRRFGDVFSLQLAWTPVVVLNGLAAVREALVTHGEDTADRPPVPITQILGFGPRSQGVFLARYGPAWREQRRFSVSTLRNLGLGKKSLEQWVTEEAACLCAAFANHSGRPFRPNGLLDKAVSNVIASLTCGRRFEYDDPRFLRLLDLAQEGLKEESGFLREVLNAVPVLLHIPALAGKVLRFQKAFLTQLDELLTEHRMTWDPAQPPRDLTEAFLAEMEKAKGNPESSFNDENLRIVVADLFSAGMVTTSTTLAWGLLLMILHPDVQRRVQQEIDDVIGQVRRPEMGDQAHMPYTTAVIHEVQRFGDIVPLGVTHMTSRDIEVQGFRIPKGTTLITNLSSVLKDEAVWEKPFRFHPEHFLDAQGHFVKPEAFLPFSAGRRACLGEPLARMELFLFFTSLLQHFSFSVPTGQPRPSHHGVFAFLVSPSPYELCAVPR
The target in series [20] is T2, Cytochrome P450 1A2 (Homo sapiens, UniProt P05177).
T2 sequence (P05177 whole entry): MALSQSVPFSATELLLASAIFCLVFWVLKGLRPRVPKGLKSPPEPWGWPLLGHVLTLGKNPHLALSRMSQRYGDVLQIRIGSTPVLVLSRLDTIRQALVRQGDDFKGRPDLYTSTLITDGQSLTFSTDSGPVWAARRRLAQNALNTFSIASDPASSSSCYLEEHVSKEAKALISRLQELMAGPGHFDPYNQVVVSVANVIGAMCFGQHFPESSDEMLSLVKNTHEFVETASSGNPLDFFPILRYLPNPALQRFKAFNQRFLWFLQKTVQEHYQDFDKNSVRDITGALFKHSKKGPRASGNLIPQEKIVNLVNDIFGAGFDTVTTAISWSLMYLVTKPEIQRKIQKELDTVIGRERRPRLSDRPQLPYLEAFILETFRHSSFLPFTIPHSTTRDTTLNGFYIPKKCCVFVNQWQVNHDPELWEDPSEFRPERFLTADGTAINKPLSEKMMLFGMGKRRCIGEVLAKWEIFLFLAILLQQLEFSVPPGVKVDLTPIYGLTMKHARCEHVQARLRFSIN
Description: Inhibition of CYP1A2. The format is ADME.

Series [21] has as its target Cytochrome P450 3A4 (Homo sapiens, UniProt P08684). Description: Inhibition of CYP3A4. Type of series: ADME.
Series [22] in a line: Cmax in rat at 5 mg/kg, po. Type of series: ADME, organism-based. The arrangement: dose 5 mg/kg, route oral. The settings on record: in vivo.
The target of series [23] is Histamine H3 receptor (Rattus norvegicus, UniProt Q9QYN8). Description: Displacement of [3H]NAMH from rat histamine H3 receptor expressed in CHO cells. Type of series: cell-based.
Histamine H3 receptor (Rattus norvegicus, UniProt Q9QYN8), sequence (Q9QYN8 whole entry): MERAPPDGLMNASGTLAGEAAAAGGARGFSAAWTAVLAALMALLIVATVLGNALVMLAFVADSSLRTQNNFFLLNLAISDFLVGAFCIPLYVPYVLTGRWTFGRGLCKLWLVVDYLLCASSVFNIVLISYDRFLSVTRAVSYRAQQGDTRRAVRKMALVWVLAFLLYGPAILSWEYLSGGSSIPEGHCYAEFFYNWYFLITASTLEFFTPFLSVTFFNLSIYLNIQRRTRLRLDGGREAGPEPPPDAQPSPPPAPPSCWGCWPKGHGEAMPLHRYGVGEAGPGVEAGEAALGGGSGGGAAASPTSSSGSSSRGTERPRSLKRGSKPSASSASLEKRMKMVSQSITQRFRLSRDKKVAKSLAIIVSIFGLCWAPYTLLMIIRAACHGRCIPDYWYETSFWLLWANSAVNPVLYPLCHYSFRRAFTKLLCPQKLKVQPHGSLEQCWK
For series [24], the system named is Rattus norvegicus. Description: Wake promoting activity in EEG/EMG Sprague-Dawley rat model assessed as sleep rebound at 10 to 30 mg/kg, ip. The format is functional, organism-based.
For series [25], the system named is Rattus norvegicus. Description: Wake promoting activity in EEG/EMG Sprague-Dawley rat model at 30 mg/kg, ip measured after 3.5 hrs relative to control. Type of series: functional, organism-based. More on the design: dose 30 mg/kg.
Series [26] concerns Rattus norvegicus. As to the kind of experiment: Wake promoting activity in EEG/EMG Sprague-Dawley rat model assessed as wake time at 30 mg/kg, ip measured up to 4 hrs (reference value: 85 +/- 9 mins). The format is functional. Particulars: route intraperitoneal.
The test system of series [27] is Rattus norvegicus. As to the kind of experiment: Wake promoting activity in EEG/EMG Sprague-Dawley rat model assessed as cumulative wake time at 30 mg/kg, ip measured after 5 hrs relative to control. Type of series: functional. The settings on record: route intraperitoneal.
Series [28] deals with Rattus norvegicus. Description: Inhibition of RAMH-induced dipsogenia in rat at 1 mg/kg, ip. Type of series: functional, organism-based. The arrangement: dose 1 mg/kg.
In series [29] the test system is Rattus norvegicus. Description: Wake promoting activity in EEG/EMG Sprague-Dawley rat model assessed as maximal cumulative wake surplus time at 10 to 30 mg/kg, ip measured after 9 hrs. Type of series: functional. Particulars: dose mg/kg 10-30; route intraperitoneal.
The subject of series [30] is Rattus norvegicus. As to the kind of experiment: Wake promoting activity in EEG/EMG Sprague-Dawley rat model measured up to 4 hrs post dosing. The format is functional, organism-based.
Series [31] deals with Rattus norvegicus. Description: Wake promoting activity in EEG/EMG Sprague-Dawley rat model assessed as wake time at 10 mg/kg, ip measured up to 4 hrs (reference value: 85 +/- 9 mins). Particulars: route intraperitoneal. The format is functional.

T1 sequence (Q9Y5N1 whole entry): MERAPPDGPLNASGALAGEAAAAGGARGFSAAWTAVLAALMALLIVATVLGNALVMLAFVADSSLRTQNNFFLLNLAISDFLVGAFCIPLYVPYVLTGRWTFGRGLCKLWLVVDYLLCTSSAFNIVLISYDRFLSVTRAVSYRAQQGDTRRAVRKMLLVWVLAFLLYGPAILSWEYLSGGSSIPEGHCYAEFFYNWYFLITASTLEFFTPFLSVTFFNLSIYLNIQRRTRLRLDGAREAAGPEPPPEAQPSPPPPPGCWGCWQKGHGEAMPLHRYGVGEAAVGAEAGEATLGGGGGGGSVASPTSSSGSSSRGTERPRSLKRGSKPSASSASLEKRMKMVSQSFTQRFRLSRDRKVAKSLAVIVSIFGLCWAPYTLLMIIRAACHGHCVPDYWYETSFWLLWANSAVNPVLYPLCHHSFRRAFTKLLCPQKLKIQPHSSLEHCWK
Cytochrome P450 3A4, sequence (P08684 whole entry): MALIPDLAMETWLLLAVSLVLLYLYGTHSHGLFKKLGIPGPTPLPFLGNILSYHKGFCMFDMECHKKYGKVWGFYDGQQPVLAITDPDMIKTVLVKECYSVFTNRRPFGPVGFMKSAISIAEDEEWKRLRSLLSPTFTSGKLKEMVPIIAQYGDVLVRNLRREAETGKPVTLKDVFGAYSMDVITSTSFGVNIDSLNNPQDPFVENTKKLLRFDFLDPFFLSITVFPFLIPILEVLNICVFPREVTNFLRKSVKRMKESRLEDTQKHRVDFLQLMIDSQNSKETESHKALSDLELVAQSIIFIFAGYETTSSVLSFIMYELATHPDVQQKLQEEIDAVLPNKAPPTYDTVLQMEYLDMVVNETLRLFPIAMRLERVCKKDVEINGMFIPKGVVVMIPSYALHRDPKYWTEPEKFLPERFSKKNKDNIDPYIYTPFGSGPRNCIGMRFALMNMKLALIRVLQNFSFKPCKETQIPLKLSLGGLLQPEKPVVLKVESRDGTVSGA
Cytochrome P450 2C19, sequence (P33261 whole entry): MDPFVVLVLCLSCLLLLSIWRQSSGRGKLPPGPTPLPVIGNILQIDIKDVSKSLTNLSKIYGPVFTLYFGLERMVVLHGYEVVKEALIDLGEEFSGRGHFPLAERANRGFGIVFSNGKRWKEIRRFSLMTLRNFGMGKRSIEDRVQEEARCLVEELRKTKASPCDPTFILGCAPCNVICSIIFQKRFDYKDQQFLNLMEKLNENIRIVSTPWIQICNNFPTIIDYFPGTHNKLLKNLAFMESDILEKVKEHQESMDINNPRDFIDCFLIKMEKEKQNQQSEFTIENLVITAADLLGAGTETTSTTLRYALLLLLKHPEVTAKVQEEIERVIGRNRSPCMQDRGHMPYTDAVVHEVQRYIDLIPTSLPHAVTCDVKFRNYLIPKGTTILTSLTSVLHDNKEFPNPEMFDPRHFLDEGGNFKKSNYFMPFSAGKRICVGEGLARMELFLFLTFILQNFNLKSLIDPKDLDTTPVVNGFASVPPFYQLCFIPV

By AUC is commonly meant the area under the concentration-time curve, a measure of exposure. One may read the IC50 as the concentration that inhibits the measured activity by half. For orientation: EC50 means the concentration that produces a half-maximal response. Usually half-life stands for the time in which the quantity being followed falls by half. What is called ED50 is the midpoint of the dose-response relation. The term Kb denotes the affinity of an antagonist, worked out from how it opposes an agonist. For orientation: Ki means a dissociation constant, usually derived from enzyme kinetics or from competition with a known ligand. Usually Vd stands for the apparent volume that relates the amount in the body to the concentration in plasma or blood. One may read the bioavailability as dose-corrected exposure relative to a reference, in per cent. As a reminder, the clearance is the rate of elimination divided by the concentration. The term Cmax denotes the highest concentration seen after dosing. In the case of `C[C@@H]1CCCN1CCCOc1ccc(C(=O)CN2CCN(C(=O)c3ccccc3)CC2)cc1`, the area under the curve (AUC) in [1] came to 689 ng·h/mL. In addition, the IC50 in [2], in series [6], in series [19], in series [20] and in series [21] was > 30000 nM in each case. The molecule also returned an EC50 in series [3] of 1 nM. Also, the Activity in [4] stood at 33%. In addition, the half-life in series [5] is > 40 min; in series [8], > 40 min; in series [10] it was > 40 min; in series [14] it was > 40 min; in series [15] it was 72 min; in series [17] it was > 40 min. Further, the median effective dose (ED50) in series [7] stood at 0.43 mg/kg. In addition, in series [7], the inhibition entry is “Dose-dependent effect”. The Kb in [9] came to 0.8 nM. Also, the Ki in series [11] turned out to be 1.9 nM; in series [23], 14 nM. This molecule displayed a Vd in series [12] of 1.4 L/kg. In [13], this molecule gave a bioavailability of 14%. Besides, the Kp at 6 h in series [16] came to 1.5. The clearance in series [18] came out at 14 mL/min/kg. The Cmax in [22] was found to be 165 ng/mL.

With `C[C@@H]1CCCN1CCCOc1ccc(C(=O)CN2CCC(F)(F)C2)cc1`, the Ki in [11] was found to be 3.4 nM; in series [23], 21 nM.

Turning to `C[C@@H]1CCCN1CCCOc1ccc(C(=O)CN2CCN(C(=O)c3cccs3)CC2)cc1`, the figures for the Ki in [11] and in series [23] were 4.2 nM and 9 nM, respectively.

Regarding `C[C@@H]1CCCN1CCCOc1ccc(C(=O)CN2CCN(C(=O)c3ccc(F)cc3)CC2)cc1`, the Ki in series [11] turned out to be 0.6 nM; in series [23], 5.8 nM.

For the molecule `C[C@@H]1CCCN1CCCOc1ccc(C(=O)CN2CCN(C(=O)Oc3ccccc3)CC2)cc1`, the Ki was 3.9 nM in [11] and 6.9 nM in series [23].

On to `C[C@@H]1CCCN1CCCOc1ccc(C(=O)CN2CCC(C(F)(F)F)CC2)cc1`, for which the inhibition constant Ki in [11] turned out to be 2.5 nM; in series [23] it was 9.1 nM.

As for `C[C@@H]1CCCN1CCCOc1ccc(C(=O)CN2CCN(C(=O)c3cc4ccccc4s3)CC2)cc1`, the Ki in [11] is 1.2 nM; in [23] it was 4 nM.

For `C[C@@H]1CCCN1CCCOc1ccc(C(=O)CN2CCC(C#N)CC2)cc1`, the Ki in series [11] was determined as 6.3 nM; in [23], 23 nM.

For `C[C@@H]1CCCN1CCCOc1ccc(C(=O)CN2CCC(F)(F)CC2)cc1`, the AUC in series [1] amounted to 266 ng·h/mL. Also, the IC50 in series [2], in series [6], in series [19], in series [20] and in series [21] was > 30000 nM throughout. Moreover, the result in [24] was inactive. Also, in [3], the EC50 came out at 1.8 nM. Besides, in [25], the outcome was Active. Besides, the Time is given as 195 min in series [26], 113 min in [27], 46 min in series [29] and 150 min in [31]. In [28], the inhibition entry was “Active”. Besides, the Kb in [9] is 3.7 nM. In addition, the Ki is 11 nM in [11] and 43 nM in [23]. Besides, the Activity result in [30] was “Dose-dependent effect”. In series [12], this molecule gave a volume of distribution (Vd) of 2.2 L/kg. In addition, the bioavailability in [13] stood at 15%. In series [15], this molecule showed a half-life of 30 min. The Kp at 6 h in series [16] worked out at 25. The clearance in series [18] worked out at 53 mL/min/kg. The concentration in [22] peaked (Cmax) at 66 ng/mL.

Regarding `CCOC(=O)N1CCN(CC(=O)c2ccc(OCCCN3CCC[C@H]3C)cc2)CC1`, the figures for the inhibition constant Ki in series [11] and in [23] were 4 nM and 23 nM, respectively. The molecule further gave a Vd in series [12] of 2.8 L/kg. The bioavailability in series [13] came to 33%. For the same molecule, the half-life in series [15] was 126 min. Moreover, in series [16], the Kp at 6 h amounted to 2.4. In series [18], this molecule gave a clearance of 16 mL/min/kg. Moreover, in series [19], the IC50 worked out at 5000 nM.

For the origin of these results see ChEMBL document CHEMBL2034887, “Substituted phenoxypropyl-(R)-2-methylpyrrolidine aminomethyl ketones as histamine-3 receptor inverse agonists” (Bioorg Med Chem Lett, 2012).
